In paper PMC5024137 (Scientific Reports, 2016):

T1: hOATP2B1 (Homo sapiens, UniProt O94956)
T1 sequence (O94956 1-709): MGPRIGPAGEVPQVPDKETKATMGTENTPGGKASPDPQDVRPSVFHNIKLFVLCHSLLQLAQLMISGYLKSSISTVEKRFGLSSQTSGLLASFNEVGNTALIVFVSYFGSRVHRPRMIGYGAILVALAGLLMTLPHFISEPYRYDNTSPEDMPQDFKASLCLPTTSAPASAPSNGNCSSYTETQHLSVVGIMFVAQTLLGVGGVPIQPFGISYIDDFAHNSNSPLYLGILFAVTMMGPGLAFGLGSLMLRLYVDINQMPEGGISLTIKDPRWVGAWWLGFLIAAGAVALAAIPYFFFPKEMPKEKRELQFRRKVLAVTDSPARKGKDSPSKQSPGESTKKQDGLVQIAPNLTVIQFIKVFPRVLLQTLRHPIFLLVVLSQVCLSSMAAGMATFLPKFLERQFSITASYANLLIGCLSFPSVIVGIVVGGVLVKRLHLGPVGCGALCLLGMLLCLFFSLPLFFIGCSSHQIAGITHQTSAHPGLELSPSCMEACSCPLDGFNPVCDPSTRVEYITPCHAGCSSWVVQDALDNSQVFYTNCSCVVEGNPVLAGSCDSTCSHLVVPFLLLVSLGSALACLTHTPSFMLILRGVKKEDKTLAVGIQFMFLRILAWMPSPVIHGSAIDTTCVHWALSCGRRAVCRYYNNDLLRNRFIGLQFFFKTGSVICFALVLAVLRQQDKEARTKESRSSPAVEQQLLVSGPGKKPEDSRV

B1: hOATP2B1 (Homo sapiens) (protein)
chain: T1 sequence (O94956 1-709)

How the values were obtained:
hOATP2B1 [1] = biological target: T1, hOATP2B1; assay: Cellular uptake assay: intracellular accumulation in HEK293-hOATP2B1 vs HEK293-MOCK cells (HPLC-MS/MS); conditions: 0.25 μM, HBSS pH7.4, 37 °C, 20 min
hOATP2B1 [2] = biological target: T1, hOATP2B1; assay: pH dependent uptake of morphine and M6G in HEK293-hOATP2B1 cells; conditions: 0.25 μM, HBSS, 37 °C, 20 min
[3] = substrate: CN1CC[C@]23c4c5ccc(O)c4O[C@H]2[C@@H](O[C@@H]2O[C@H](C(=O)O)[C@@H](O)[C@H](O)[C@H]2O)C=C[C@H]3[C@H]1C5; assay: cells, lysate or membranes named; conditions: other: HEK293-hOATP2B1 cells, 0.25 to 100 μM, pH7.4, 37 °C, 20 min, pH 7.4
Source text: V is the initial uptake rate of the substrate (pmol/min/mg protein), S is the substrate concentration in the medium (μM) and Pdif is the uptake clearance corresponding to the passive diffusion and nonspecific binding to the cell surface. Unpaired two-side Student’s t-test was applied for comparisons of two groups’ data. A P value < 0.05 was considered statistically significant.

Molecule | increase of intracellular accumulation in HEK293-hOATP2B1 compared to HEK293-MOCK (hOATP2B1 [1]) | also measured
CC(C)n1c(/C=C/C(O)CC(O)CC(=O)O)c(-c2ccc(F)cc2)c2ccccc21 (centres unmarked) [fluvastatin] | 2 to 3 fold | –
C[C@]12CC[C@@H]3c4ccc(OS(=O)(=O)[O-])cc4CC[C@H]3[C@@H]1CCC2=O.[Na+] [E-3-S, estrone-3-sulfate sodium salt] | 2 to 3 fold | –
CN1CC[C@]23c4c5ccc(O[C@@H]6O[C@H](C(=O)O)[C@@H](O)[C@H](O)[C@H]6O)c4O[C@H]2[C@@H](O)C=C[C@H]3[C@H]1C5 [M3G, morphine-3-glucuronide] | didn’t show any differences | –
CN1CC[C@]23c4c5ccc(O)c4O[C@H]2[C@@H](O[C@@H]2O[C@H](C(=O)O)[C@@H](O)[C@H](O)[C@H]2O)C=C[C@H]3[C@H]1C5 [M6G, morphine-6-glucuronide] | more than 2 fold | concentration in HEK293-hOATP2B1 cells at pH6.0 relative to pH7.4 (hOATP2B1 [2]): 2.05 fold; intracellular accumulation (hOATP2B1 [1]; HEK293-MOCK cells): 0.26 nM; intracellular accumulation (hOATP2B1 [1]; HEK293-hOATP2B1 cells): 0.71 nM
B1 | – | Km [3]: 80.31 ± 21.75 µM
